Columns and labels:
H9 [1] = assay: Evaluated for the anti-HIV activity against HIV-1 replication in H9 lymphocyte cells; format: functional, cell-based; conditions: Homo sapiens
H9 [2] = assay: Evaluated for the anti-HIV activity against HIV-1 replication in mock-infected H9 cells; format: functional, cell-based; conditions: Homo sapiens
[3] = Therapeutic Index (IC50/EC50) of the compound
[4] = Therapeutic Index (IC50/EC50) of the compound; Toxic at all concentrations
H9 [5] = assay: Evaluated for the anti-HIV activity against HIV-1 replication in H9 lymphocyte cells; Toxic at all concentrations; format: functional, cell-based; conditions: Homo sapiens

Structure (SMILES)	EC50 (H9 [1]) [nM]	IC50 (H9 [2]) [µM]	selectivity ratio [3]	Ratio [4]	Activity (H9 [5])
C=C(C)[C@@H]1CC[C@]2(COC(=O)C(C)(C)CC(=O)O)CC[C@]3(C)[C@H](CC[C@@H]4[C@@]5(C)CC[C@H](O)C(C)(C)[C@@H]5CC[C@]43C)[C@@H]12	180	28.6	159	–	–
C=C(C)[C@@H]1CC[C@]2(C(=O)O)CC[C@]3(C)[C@H](CC[C@@H]4[C@@]5(C)CC[C@H](OC(=O)COCC(=O)O)C(C)(C)[C@@H]5CC[C@]43C)[C@@H]12	–	–	1170	–	–
C=C(C)[C@@H]1CC[C@]2(COC(=O)C(C)(C)CC(=O)O)CC[C@]3(C)[C@H](CC[C@@H]4[C@@]5(C)CC[C@H](OC(=O)C(C)(C)CC(=O)O)C(C)(C)[C@@H]5CC[C@]43C)[C@@H]12	–	–	–	Toxic at all concentrations	Toxic at all concentrations
C=C(C)[C@@H]1CC[C@]2(COC(=O)CC(C)(C)CC(=O)O)CC[C@]3(C)[C@H](CC[C@@H]4[C@@]5(C)CC[C@H](OC(=O)CC(C)(C)CC(=O)O)C(C)(C)[C@@H]5CC[C@]43C)[C@@H]12	–	–	21500	–	–

Now from value to compound, other results behind:

EC50 (H9 [1]) [nM]	Structure (SMILES)	IC50 (H9 [2]) [µM]	selectivity ratio [3]	Ratio [4]	Activity (H9 [5])
20	C=C(C)[C@@H]1CC[C@]2(COC(=O)CC(C)(C)C(=O)O)CC[C@]3(C)[C@H](CC[C@@H]4[C@@]5(C)CC[C@H](OC(=O)CC(C)(C)C(=O)O)C(C)(C)[C@@H]5CC[C@]43C)[C@@H]12	33.6	1680	–	–
< 0.35	C=C(C)[C@@H]1CC[C@]2(C(=O)O)CC[C@]3(C)[C@H](CC[C@@H]4[C@@]5(C)CC[C@H](OC(=O)CC(C)(C)C(=O)O)C(C)(C)[C@@H]5CC[C@]43C)[C@@H]12 [BEVIRIMAT]	–	> 20000	–	–
400	C=C(C)[C@@H]1CC[C@]2(COC(=O)CC(C)(C)C(=O)O)CC[C@]3(C)[C@H](CC[C@@H]4[C@@]5(C)CC[C@H](OC(=O)C(C)(C)CC(=O)O)C(C)(C)[C@@H]5CC[C@]43C)[C@@H]12	38.6	96.5	–	–
0.87	C=C(C)[C@@H]1CC[C@]2(COC(=O)C(C)(C)CC(=O)O)CC[C@]3(C)[C@H](CC[C@@H]4[C@@]5(C)CC[C@H](OC(=O)CC(C)(C)C(=O)O)C(C)(C)[C@@H]5CC[C@]43C)[C@@H]12	36.9	42400	–	–
< 180	C=C(C)[C@@H]1CC[C@]2(COC(=O)CC(C)(C)C(=O)O)CC[C@]3(C)[C@H](CC[C@@H]4[C@@]5(C)CC[C@H](O)C(C)(C)[C@@H]5CC[C@]43C)[C@@H]12	37.4	> 207	–	–

From ChEMBL document CHEMBL1134740, “3,28-Di-O-(dimethylsuccinyl)-betulin isomers as anti-HIV agents” (Bioorg Med Chem Lett, 2001)
